Data reported in US20250025525A1, “OCTAPEPTIDE FOR TOPICAL APPLICATION” (Alastin Skincare, Inc., priority 2022, published 2025).
Where no end group is shown, it is not given here.

Experiments:
dermal fibroblasts = experiment: HA production and size assessment by PAGE of fibroblast supernatant; type: cell-based, human; settings: 1× and 10× (100 μg/ml and 1000 μg/ml), 72 hr, 4 experiments
Experimental: Dermal fibroblasts were cultured in growth medium until near confluence in 6-well plates. When they reached confluence, the growth medium was replaced with serum-free medium for 24 hours. After 72 hr, 100 μl of media was collected from each treatment condition. The media was concentrated in a SpeedVac concentrator to a final volume of ˜10 μl. All 10 μl from each condition, were loaded onto an acrylamide gel (NuPAGE 4-12% Bis-Tris Protein Gel, Invitrogen, Waltham, MA). Sodium Hyaluronate, Research Grade, (HA2M) from Lifecore Biomedical (Chaska, MN) was reconstituted as recommended by the manufacturer and served as a MW reference, representing high MW HA. The gel was run at 200V for 3 hours to separate MW sizes from proteins and ECM components isolated from the supernatants along with the HA2M reference as a comparator. Gel buffer was exchanged with fresh room temperature buffer every 20 minutes to avoid overheating. The gel was stained using Stains-All (Millipore Sigma, Burlington, MA) and destained according to the manufacturer's protocol. […]
Human dermal fibroblasts were treated with Octapeptide (1× and 10×; corresponding to 100 μg/ml and 1000 μg/ml respectively) or left untreated. […] The experiment was conducted 4 times and the density of the bands from each supernatant were quantified (arbitrary units (AU)) using ImageJ. […]

tropoelastin (TE) = experiment: Ex vivo human skin tissue, tropoelastin immunofluorescent staining; settings: once daily for 7 days, 20 μg/ml of each peptide
Experimental: (§1) Referring to FIG. 24, human skin tissue was defatted and cut into a diameter of approximately 7 mm and placed in a transwell insert with cell culture media (DMEM/F12 containing […] CaCl2), 2% fetal bovine serum, 50 μM adenine, 0.02 nM tri-iodothyronine, 1% ITS-X (insulin, transferrin, selenium mix), 1% glutagro (a glutamine equivalent), 1% pen/strep, and 1% gentamycin). The medium was changed daily. The human skin tissue samples were equilibrated for 3 days, then treated with the compounds noted in Table 6 once daily for 7 days. After 7 days of treatment, the skin samples were fixed in formalin and embedded in paraffin following industry standard procedures. The resulting blocks were prepared and sectioned for immunofluorescent staining.
(§2) Antibodies directed to tropoelastin (TE) (available from Elastin, Owensville, MO) and antibodies against microfibrillar-associated protein 4 (MFAP4) (available from ThermoFisher Waltham, MA) were used to detect the production of new elastin in the treated cells. The appropriate fluorescent secondary antibodies were used for detection by fluorescence microscopy. Images were obtained and analyzed using ImageJ software.
(§3) Data was obtained from a minimum of three donor skin samples and replicates or triplicates were performed for each compound treated.

[1] = system: microfibrillar-associated protein 4 (MFAP4); experiment: Ex vivo human skin tissue, MFAP4 immunofluorescent staining; settings: once daily for 7 days, 20 μg/ml of each peptide
Experimental: as §1, §2, §3

Hyaluronidase 2 (HYAL2) = experiment: RNA-Seq gene expression of HYAL2 in keratinocytes; type: cell-based, Human; settings: 24 hr, 100 μg/ml
Experimental: (§4) Cell Lines. Human adult dermal fibroblast and keratinocyte cell lines were treated with 11 different compound treatments (plus DMSO control as treatment #12Primary cells were plated in cell specific media at 5K or 10K cells per cm^2. Cells were plated in 48 well plates (Greiner) in triplicate, one cell line per plate. Media volume was 500 ul per well. Outer two columns of wells were not used. All rows were used. Cells were cultured for 2 days in 37° C. 5% CO2 incubator. After 48 hours all the cell cultures were uniform and appeared healthy, no appreciable number of floating dead cells or evidence of vacuolization of cells that might indicate apoptotic or dying cells.
(§5) Compounds. Stocks of compounds 1 through 8 on the list below were prepared in PBS. […] This stock was 100× of final concentration. A 20 mg/ml stock of compound 10 (CBD) was prepared in DMSO. No undissolved particulates were observed but the stock solution was slightly cloudy, not completely clear. […]
(§6) RNA Lysate preparation. […] All samples were shipped frozen on dry ice for RNA extraction, library construction and sequencing to 25M paired end 100 bp reads per sample.
(§7) RNA-Seq. All the RNA samples were shipped frozen on dry ice for RNA extraction, library construction and sequencing to 25M paired end 100 bp reads per sample. Differentially expressed genes were identified and pathway enrichment was assessed using the Reactome Pathway.

[2] = system: Hyaluronic Acid Synthase 2 (HAS2); experiment: RNA-Seq gene expression of HAS2 in dermal fibroblasts; type: cell-based, Human; settings: 24 hr, Octapeptide 100 μg/ml
Experimental: as §4, §5, §6, §7

[3] = system: Hyaluronic Acid Synthase 2 (HAS2); experiment: RNA-Seq gene expression of HAS2 in keratinocytes; type: cell-based, Human; settings: 24 hr, Hexapeptide 11 100 μg/ml
Experimental: as §4, §5, §6, §7

[4] = system: Early Growth Response 3 (EGR3); experiment: RNA-Seq gene expression of EGR3 in keratinocytes; type: cell-based, Human; settings: 24 hr, Hexapeptide 11 100 μg/ml
Experimental: as §4, §5, §6, §7

[5] = system: dermal and epidermal hyaluronic acid levels; settings: ex vivo human skin model; cited from earlier work

Compound | production of high MW HA (band density, AU) (dermal fibroblasts) | TE expression vs untreated skin (tropoelastin (TE)) | MFAP4 expression vs untreated skin [1] | HYAL2 gene expression, fold-change relative to the non-treated cells (Hyaluronidase 2 (HYAL2)) | HAS2 gene expression, fold-change relative to the non-treated cells [2] | HAS2 gene expression, fold-change relative to the non-treated cells [3] | upregulation of EGR3 gene expression relative to the non-treated cells [4] | stimulation of dermal hyaluronic acid levels versus placebo [5] [%] | stimulation of epidermal hyaluronic acid levels versus placebo [5] [%]
GPHGVREA [octapeptide-45, proprietary peptide designed by R&D at Alastin; octapeptide included in HA Immerse Serum] | dose-responsive increase in the production of high MW HA | increases | increases | modest downregulation | excellent stimulation | – | – | – | –
Hexapeptide-11 | – | – | – | potent downregulation | – | excellent upregulation | about seven | – | –
CCCCCCCC(=O)CCc1ccc(O)c(OC)c1 [Hydroxymethoxyphenyl decanone] | – | – | – | – | – | – | – | 259 | 198
